Measured values: patent US20180111949A1, “NOVEL INDUSTRIAL CRYSTALLIZATION METHOD OF CEFUROXIME SODIUM AND PREPARATION THEREOF” (HAINAN LINGKANG PHARMACEUTICAL CO., LTD, priority 2016, published 2018)
“And” between values parts separate entries of the source, which are not always exact repeats. Equal entries are not always repeated.

Tests used:
[1] = Flowability test, angle of repose by funnel method; format: physicochemical; conditions: refined Cefuroxime Sodium prepared in Example 1
Description: In order to examine the flowability of the refined Cefuroxime Sodium prepared in Example 1, the angle of repose was measured by a funnel method. Test method: The particles were placed in a fixed funnel, and were […] freely to a horizontal plane to form a disk-shaped stacked body with a bottom radius of r, and the height of the stacked body was measured as H. The results were calculated according to the equation of tan θ=H/r and were shown in the following table: […]

[2] = cited from earlier work
[3] = pH, quality research per Chinese Pharmacopoeia 2010 Part 2; format: physicochemical; conditions: crystalline powder
Description: (§1) Referring to the quality standard of the raw material in “Part 2 of Chinese Pharmacopoeia 2010 Edition”, the quality research on crystalline powder of Cefuroxime Sodium was conducted in Example 1˜4 and Comparative Example 1, and the results were shown as follows: […]

[4] = Clarity of the solution, quality research per Chinese Pharmacopoeia 2010 Part 2; format: physicochemical; conditions: compliance with pharmacopoeia standard
Description: as §1

[5] = Abnormal toxicity, quality research per Chinese Pharmacopoeia 2010 Part 2; conditions: compliance with pharmacopoeia standard
Description: as §1

[6] = Bacterial endotoxin, quality research per Chinese Pharmacopoeia 2010 Part 2; conditions: compliance with pharmacopoeia standard
Description: as §1

[7] = Color of the solution, quality research per Chinese Pharmacopoeia 2010 Part 2; format: physicochemical; conditions: compliance with pharmacopoeia standard
Description: as §1

Compound | Angle of repose θ, average value ([1]; average of three measurements) | Angle of repose θ ([1]; single measurements, funnel method) | Solubility in chloroform ([2]; chloroform) | Solubility in ethanol ([2]; ethanol) | Solubility in methanol ([2]; methanol) | Solubility in water ([2]; water) | pH [3] | Clarity of the solution [4] | Abnormal toxicity [5] | Bacterial endotoxin [6] | Color of the solution [7]
CO/N=C(\C(=O)N[C@@H]1C(=O)N2C(C(=O)[O-])=C(COC(N)=O)CS[C@H]12)c1ccco1.[Na+] [Cefuroxime Sodium, Sodium (6R, 7R)-7-[2-furyl (methoxyimino)acetylamino]-3-carbamoyloxymethyl-8-oxo-5-thia-1-azabicyclo [4.2.0]oct-2-ene-2-carboxylate] | 26.1° | 25.9° and 26.1° and 26.2° | insoluble | insoluble | slightly soluble | soluble |  |  |  |  | 
CO/N=C(\C(=O)N[C@@H]1C(=O)N2C(C(=O)[O-])=C(COC(N)=O)CS[C@H]12)c1ccco1.[Na+] [Comparative Example 1, Cefuroxime Sodium] |  |  |  |  |  |  | pH = 7.5 | Compliance | Compliance | Compliance | 
CO/N=C(\C(=O)N[C@@H]1C(=O)N2C(C(=O)[O-])=C(COC(N)=O)CS[C@H]12)c1ccco1.[Na+] [Example 3, Cefuroxime Sodium] |  |  |  |  |  |  | pH = 7.4 | Compliance | Compliance | Compliance | Compliance
CO/N=C(\C(=O)N[C@@H]1C(=O)N2C(C(=O)[O-])=C(COC(N)=O)CS[C@H]12)c1ccco1.[Na+] [Example 2, Cefuroxime Sodium] |  |  |  |  |  |  | pH = 7.5 | Compliance | Compliance | Compliance | Compliance
CO/N=C(\C(=O)N[C@@H]1C(=O)N2C(C(=O)[O-])=C(COC(N)=O)CS[C@H]12)c1ccco1.[Na+] [Example 1, Cefuroxime Sodium] |  |  |  |  |  |  | pH = 7.3 | Compliance | Compliance | Compliance | Compliance
CO/N=C(\C(=O)N[C@@H]1C(=O)N2C(C(=O)[O-])=C(COC(N)=O)CS[C@H]12)c1ccco1.[Na+] [Example 4, Cefuroxime Sodium] |  |  |  |  |  |  | pH = 7.0 | Compliance | Compliance | Compliance | Compliance
